Assay results taken from US8614207B2, “Inhibitors of hepatitis C virus” (Presidio Pharmaceuticals, Inc., priority 2010, dated 2013).

test system: HCV1b replication (bicistronic genotype 1b replicon in Huh 7 cells); assay: HCV replicon assay, 1b_Huh-Luc/Neo-ET cell line, luciferase readout; assay type: cell-based, HCV genotype 1b; details: Hepatitis C virus, Group 1 / Group 2, read-out: EC50, concentration effective to produce a half-maximal inhibition of HCV1b replication
Method: Biological activity of the compounds of the invention was determined using an HCV replicon assay. The 1b_Huh-Luc/Neo-ET cell line persistently expressing a bicistronic genotype 1b replicon in Huh 7 cells was obtained from ReBLikon GMBH. This cell line was used to test compound inhibition using luciferase enzyme activity readout as a measurement of compound inhibition of replicon levels.
On Day 1 (the day after plating), each compound is added in triplicate to the cells. Plates incubated for 72 […] prior to running the luciferase assay. Enzyme activity was measured using a Bright-Glo Kit (cat. number E2620) manufactured by Promega Corporation. The following equation was used to generate a percent control value for each compound. % Control=(Average Compound Value/Average Control)*100
The EC50 value was determined using GraphPad Prism and the following equation: Y=Bottom+(Top−Bottom)/(1+10^((Log IC50−X)*HillSlope))
EC50 values of compounds are repeated several times in the replicon assay.

`CNC(=O)c1c(-c2ccc(Oc3ccc(F)cc3)cc2)oc2cc3c(cc12)[C@@H](C)O[C@H](CS(C)(=O)=O)CN3S(C)(=O)=O` [Compound B216] and `CNC(=O)c1c(-c2ccc(Oc3ccc(F)cc3)cc2)oc2cc3c(cc12)C(C)OC(CS(C)(=O)=O)CN3S(C)(=O)=O` (centres unmarked) [Compound B192] cannot be ordered by EC50: 10 to 100 nM for the first, no more than 10 nM for the second.

`CNC(=O)c1c(-c2ccc(F)cc2)oc2cc3c(cc12)C(C)OCCN3S(C)(=O)=O` (centres unmarked) [Compound B22] and `CNC(=O)c1c(-c2ccc(F)cc2)oc2cc3c(cc12)[C@H](C)OCCN3S(C)(=O)=O` [Compound B45] cannot be ordered by EC50: 10 to 100 nM for the first, no more than 10 nM for the second.

Work on `CNC(=O)c1c(-c2ccc(F)cc2)oc2cc3c(cc12)[C@@H](C)O[C@H](CS(C)(=O)=O)CN3S(C)(=O)=O` [Compound B215] yielded an EC50 of 10 to 100 nM.
